Source: patent US6673555B1, “Methods of using SCAP antagonists” (SmithKline Beecham Corporation, priority 1999, dated 2004)

Key:
full length hamster SCAP = biological target: T1, full length hamster SCAP (Cricetulus griseus, UniProt P97260); experiment: Photo-affinity labelling / competition binding on full length SCAP in infected Sf-9 cells
T1 construct: recombinant baculovirus encoding for full length hamster SCAP containing a T7 tag; expressed in transfected cells; host or cells: Sf-9 insect cells infected with recombinant baculovirus (pTen12 transfer vector)
T1 sequence (P97260 1-1276): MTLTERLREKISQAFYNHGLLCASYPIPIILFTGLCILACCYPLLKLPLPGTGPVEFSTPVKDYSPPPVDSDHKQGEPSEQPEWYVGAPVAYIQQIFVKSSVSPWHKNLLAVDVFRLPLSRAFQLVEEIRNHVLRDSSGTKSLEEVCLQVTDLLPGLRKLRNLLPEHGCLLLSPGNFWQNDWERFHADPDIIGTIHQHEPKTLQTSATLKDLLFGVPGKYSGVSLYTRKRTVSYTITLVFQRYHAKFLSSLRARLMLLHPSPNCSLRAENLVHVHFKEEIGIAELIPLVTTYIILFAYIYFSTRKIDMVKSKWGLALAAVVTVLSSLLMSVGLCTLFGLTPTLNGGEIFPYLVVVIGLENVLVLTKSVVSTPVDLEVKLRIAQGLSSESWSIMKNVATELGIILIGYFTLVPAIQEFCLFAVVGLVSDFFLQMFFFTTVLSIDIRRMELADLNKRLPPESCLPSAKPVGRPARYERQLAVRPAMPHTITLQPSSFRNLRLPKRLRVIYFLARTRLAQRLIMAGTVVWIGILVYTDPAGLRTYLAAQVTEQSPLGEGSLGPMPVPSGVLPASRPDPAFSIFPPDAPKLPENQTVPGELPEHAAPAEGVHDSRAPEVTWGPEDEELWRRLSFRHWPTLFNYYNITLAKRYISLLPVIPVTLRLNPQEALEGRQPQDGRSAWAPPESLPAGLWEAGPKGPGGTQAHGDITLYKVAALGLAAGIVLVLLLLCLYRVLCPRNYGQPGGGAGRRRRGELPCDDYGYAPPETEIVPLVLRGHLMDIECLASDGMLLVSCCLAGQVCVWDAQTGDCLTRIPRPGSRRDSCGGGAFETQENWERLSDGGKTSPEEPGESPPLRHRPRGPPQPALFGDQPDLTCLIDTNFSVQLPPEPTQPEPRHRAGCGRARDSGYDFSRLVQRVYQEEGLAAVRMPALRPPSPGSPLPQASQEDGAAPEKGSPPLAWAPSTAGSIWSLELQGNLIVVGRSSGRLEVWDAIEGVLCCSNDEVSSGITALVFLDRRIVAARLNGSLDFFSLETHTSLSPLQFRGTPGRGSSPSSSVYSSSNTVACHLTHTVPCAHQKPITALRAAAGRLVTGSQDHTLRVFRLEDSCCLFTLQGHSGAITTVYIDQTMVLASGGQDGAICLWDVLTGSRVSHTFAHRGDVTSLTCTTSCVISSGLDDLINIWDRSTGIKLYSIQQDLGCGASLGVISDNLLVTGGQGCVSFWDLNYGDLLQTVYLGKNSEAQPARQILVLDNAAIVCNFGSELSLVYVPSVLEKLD
Protocol: Hamster SCAP cDNA was cut from pTK-HSV-SCAP-T7 using BgIII and Xbal and re-cloned in pTen 12 transfer vector. Recombinant baculovirus clones were produced by Quantum Biotechnologies Inc. and screened by western blots using T7-tag antibodies on Sf-9 infected cells. Sf-9 cells were grown in CCM-3 medium at 28° C. and seeded at 8×10^6 cells per 75 cm^2 flask. Four hours later they were infected with 200×10^6 pfu of baculovirus and incubated 3 days before harvest. […]
(§1) Infected Sf-9 cells were harvested, washed in Dulbecco phosphate buffered saline and 2×10^5 cells were incubated with test compounds and the control (^14C radio-labeled Example 2 ) for 30 min at 28° C. in 24 well plates. […] The radioactivity was detected using a Phosporlmager screen (Molecular Dynamics).
Sf-9 insect cells were infected with recombinant baculovirus encoding for full length hamster SCAP containing a T7 tag (FIG. 1A). Total protein (10 μg) from control cells (lanes b, d) or infected cells (lanes a, c) were analyzed by SDS-PAGE and either stained using Coomassie blue (lanes a, b) or blotted on nitrocellulose membrane following immuno-detection with T7 tag monoclonal antibody (lanes c, d). […] The gel was dried and radioactivity detected using Phosphor Imager Screen.

[1] = biological target: T2, truncated form of SCAP corresponding to amino acid 2 to 473 (Cricetulus griseus, UniProt P97260); experiment: Photo-affinity labelling / competition binding on truncated SCAP (amino acid 2 to 473) in Sf-9 cell membranes; set-up: species or system hamster
T2 construct: a truncated form of SCAP corresponding to amino acid 2 to 473; expressed in transfected cells; host or cells: Sf-9 insect cells infected with recombinant baculovirus (Gateway pDest10 bacmid); membranes analysed
T2 sequence (P97260 2-473): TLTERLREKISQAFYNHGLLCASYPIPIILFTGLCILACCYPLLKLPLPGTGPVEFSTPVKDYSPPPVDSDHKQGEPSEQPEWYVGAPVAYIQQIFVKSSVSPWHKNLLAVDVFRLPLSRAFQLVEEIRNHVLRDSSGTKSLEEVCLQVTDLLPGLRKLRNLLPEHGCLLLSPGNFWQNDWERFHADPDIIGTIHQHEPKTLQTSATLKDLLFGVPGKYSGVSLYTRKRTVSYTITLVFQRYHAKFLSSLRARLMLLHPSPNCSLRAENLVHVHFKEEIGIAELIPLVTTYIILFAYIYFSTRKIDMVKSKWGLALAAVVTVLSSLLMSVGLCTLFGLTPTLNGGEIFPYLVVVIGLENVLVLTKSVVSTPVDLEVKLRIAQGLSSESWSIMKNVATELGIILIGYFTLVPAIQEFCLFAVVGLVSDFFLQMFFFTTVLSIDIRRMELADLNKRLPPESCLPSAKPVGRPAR
Protocol: Hamster SCAP cDNA was cut from pTK-HSV-SCAP-T7 using BgIII and Xbal and re-cloned in pTen 12 transfer vector. Recombinant baculovirus clones were produced by Quantum Biotechnologies Inc. and screened by western blots using T7-tag antibodies on Sf-9 infected cells. Sf-9 cells were grown in CCM-3 medium at 28° C. and seeded at 8×10^6 cells per 75 cm^2 flask. Four hours later they were infected with 200×10^6 pfu of baculovirus and incubated 3 days before harvest. Truncated SCAP corresponding to amino acid 2 to 473 was produced by PCR amplification with Platinium Pfx polymerase using pTK-HSV-SCAP-T7 as template and primers containing attB1 sequence followed by SEQ ID NO: 1 […] and the complement strand of attB2 sequence followed by SEQ ID NO: 2 […]. After recombination into pDonR201 vector using the Gateway cloning system, the inserts were recloned into pDest10 vector using LR recombinase. The corresponding bacmids and recombinant baculovirus were produced according the manufacturer instructions.
A competition binding assay using recombinant SCAP protein was developed in Sf-9 insect cells. […]
as §1, with “Dynamics). […]” for “Dynamics).”

[2] = test system: human LDL-receptor promoter; experiment: LDL-receptor promoter luciferase reporter assay in transfected HepG2 cells; type: cell-based
Text: The human LDL-receptor promoter named p-588 corresponding to nucleotide −588 to +91 relative to the major transcription site was cloned by PCR from human genomic DNA (Clonetech) using SEQ ID NO: 3 […] and SEQ ID NO: 4 […] primers. and inserted into pGL3-basic vector (Promega) at Hind-III and Nco-I sites. The sequencing was identical to published promoter (Genbank L29401). Shorter promoters were obtained by PCR sub-cloning using Kpn-I and Nar-I sites. The primer SEQ ID NO: 5 […] corresponding to luciferase coding sequence was used as reverse primer for all constructs. The following primers were used to produce respectively p-149, p-118, p-70, p-53 and p-31 promoters: SEQ ID NO: 6 […], SEQ ID NO: 7 […], SEQ ID NO: 8 […], SEQ ID NO: 9 […] and SEQ ID NO: 10 […]. A vector containing the 38 bp of the minimal promoter of adenovirus Major Late Promoter (Ham. J. et al., EMBO, 10: 2931-2940 (1991)) was produced using Bgl-II and Hind-III site in pGL3-basic. Four repeats of the SRE sequence present on the human LDL-receptor promoter were introduced in p-MLP vector using Bgl-II site, SEQ ID NO: 11 […] and complementary oligo. HepG2 cells seeded the previous day at 3 10^5 cells per well of 24 well plate were transfected with 1 μg of LDL-promoter containing vector together with p-RL-TK control vector (Promega) using Fugene 6 (Boehringer). HepG2 cells were incubated for 28 hours in the presence of SCAP antagonist and/or 25OH-cholesterol. Firefly luciferase and Renila activity were measured using Dual Luciferase Assay Kit (Promega) and Lumistar (BMG). The ratio of Firefly luciferase to Renila were used to calculate mean and S.D. of tetraplicates.
A vector containing the human LDL-receptor promoter coupled to Firefly luciferase reporter was made. A mixture of the LDL-receptor vector and control pRL-TK vector was used to transfect HepG2 cells. Cells were incubated with 25OH-cholesterol (0.2 or 1 μM) alone or in the presence (black bars) or absence (gray bars) of Example 1 (1 μM) for 28 hours before measurement of luciferase and renila activity. The ratio of luciferase activity versus renila activity was calculated and the mean and SD of triplicates were expressed as percent of control.
Shortening the LDL-receptor promoter in the same reporter vector modifies the relative luciferase activity (FIG. 3A).

HepG2 cells = experiment: Uptake of Dil-LDL by HepG2 cells; type: cell-based; conditions: 10 μM, 24 hours, Dil-LDL 6 μg/ml for last 4 hours, FIG. 5
Protocol: To determine if activation of LDL-receptor promoter also translated into an increase in functional LDL receptors, an LDL uptake assay was set up. HepG2 cells seeded at 8 10^4 cells per 8 well Biocoat slides (Beckton Dickinson) were treated with SCAP antagonist or 25OH-cholesterol for 20h and then incubated with 6 μg/ml of fluorescent Dil-LDL for 4 hours. The amount of fluorescent dye that accumulated in the lysosomes was quantified by fluorescence microscopy using Axioplan-2 Zeiss microscope equipped with DXC950P video camera (Sony) and red fluorescence filters.
HepG2 cells were treated for 24 hours in the presence of 0.5 μM Example 1 or 10 μM 25OH-cholesterol. Dil-LDL (6 μg/ml) were added 4 hours before the end of the incubation. Cells were washed and observed by fluorescence microscopy using rhodamine filters and video camera with fixed settings.

CCOC1=CC2=C(CN(C)C)C[C@@H]3[C@H](C(O)C[C@@]4(C)[C@H]3CC[C@@]43OCOC34COCO4)[C@@]2(C)CC1 (stereo partly drawn) [Example 3, 3-Ethoxy-11-hydroxy-androst-3,5-diene-17α,17β-(1,3,6,8-tetraoxaspiro[4.4]nonan-4-yl)-6-methyldimethylamine]
displacement of the 14C-Example 2 labelling of SCAP (full length hamster SCAP; 100, 50, 20 μM test compound versus 5 μM 14C-Example 2, FIG. 1A): displaced in a dose dependant manner | competition with 14C-Example 2 labelling of truncated SCAP ([1]; 200 μM or 100 μM test compound versus 5 μM 14C-Example 2, FIG. 1B): competitive

C[C@H](CCCC(C)(C)O)[C@H]1CC[C@H]2[C@@H]3CC=C4C[C@@H](O)CC[C@]4(C)[C@H]3CC[C@]12C [25OH-cholesterol, reference compound]
LDL-receptor promoter activity (luciferase/renila ratio) ([2]; 0.2 or 1 μM, 28 hours, HepG2, FIG. 2): represses LDL-receptor promoter activity | repression of shortened LDL-receptor promoter constructs ([2]; HepG2, FIG. 3B right): two sequences are involved: SRE and FP-1 | LDL uptake (Dil-LDL fluorescence) (HepG2 cells): reduced it

COc1cc(C(C)C)ccc1C1CCN(CCCCNC(=O)c2ccc(C(=O)c3ccccc3)cc2)CC1.Cl [Example 2, 4-(4-Benzoyl)-N-{4-[4-(4-isopropyl-2-methoxy-phenyl)-piperidin-1-yl]-butyl}-benzamide Hydrochloride]
photo-affinity labelling of SCAP by the radio-labelled compound (full length hamster SCAP; 5 μM 14C-Example 2, 30 min at 28° C., 365 nm UV 10 min, FIG. 1A): specifically labeled SCAP | photo-affinity labelling of truncated SCAP by the radio-labelled compound ([1]; 5 μM 14C-Example 2, membranes, FIG. 1B): can be labelled
